Measured values as given in PMC11131023, “Oral delivery of nanomedicine for genetic kidney disease” (PNAS Nexus, 2024).
Each block holds one compound with its values, some of them ahead of it.

What was measured:
AMPK = assay: Intestine-kidney in vitro Transwell model, phospho-AMPK ELISA; format: cell-based, mouse; conditions: mpkCCDc14 cells below Caco-2 cells on Transwell, after 12 hours, N ≥ 3
Description: To collect cysts grown in Matrigel, cysts were kept on ice for 1 h to liquidize the Matrigel and centrifuged at 400×g for 5 min to collect the cyst in the pellet. All standards and samples were measured on a Varioskan LUX microplate reader at a wavelength of 450 nm. The phospho-AMPK to total AMPK ratio was normalized to the PBS group and presented in percentage.

Caco-2 cells = assay: TER measurement of Caco-2 monolayers after CP treatment; format: cell-based, human; conditions: Caco-2 monolayer, up to 3 days after administration
Description: In addition to protection against an acidic environment mimicking the stomach, chitosan has been reported to open tight junctions within the intestinal epithelium and increase bioavailability in vivo ([51]). […] TER was measured three days before treatment and again after administration of nanoparticles or free drug for up to 3 days.
TER measurements were performed using an EVOM2 Epithelial Voltohmmeter (World Precision Instruments, USA).

[1] = Biodistribution after oral gavage (ex vivo organ Cy7 fluorescence); conditions: 200 μL of 500 µM Cy7-labeled, 24 h, ex vivo imaging, N = 4
Description: All animal procedures followed NIH guidelines for the care and use of laboratory animals and were approved by the University of Southern California's Institutional Animal Care and Use Committee. […] Mice were euthanized 24 h postinjection and organs (e.g. brain, heart, lungs, liver, kidneys, spleen, intestines, and bladder) were excised, imaged ex vivo on an AMI HTX in vivo imaging system, and the fluorescence signal was quantified via Aura software (Spectral Instruments Imaging, Tucson, AZ, USA, n ≥ 4). The mean radiance (photons/s/cm^2/sr) for each organ was quantified as a region of interest, and % of total organ fluorescence was obtained by dividing the fluorescence level of each organ by the sum of all the organ regions. Background was subtracted from the PBS-treated group.

[2] = Kidney health in ADPKD mice (i-Stat Chem-8+ blood analysis); format: in vivo, mouse
Description: On the day of harvest, 90 µL of blood taken from the submandibular vein was analyzed using Chem-8+ cartridges for the i-Stat Handheld Blood Analyzer (Abbott, Chicago, IL, USA). Kidney health markers including measurements of plasma sodium (Na), potassium (K), chloride (Cl), ionized calcium (iCa), total carbon dioxide (tCO2), glucose (Glu), BUN/urea, creatinine (Crea), hematocrit (Hct), and hemoglobin (Hb) were evaluated.

[3] = set-up: method as in PMID 24211079; conditions: cited from earlier work
[4] = cited from earlier work
Text: The primary obstacle in the current management of kidney disease lies in the inadequate drug concentration within the kidney. This limitation is particularly evident in the case of ADPKD, where the only FDA-approved treatment, tolvaptan, achieves ∼5.7% accumulation in the kidney after oral administration ([62]). Similarly, in our study, ∼4.5% of free metformin accumulated in the kidney. Given the pronounced deficiency in kidney bioavailability observed with free drugs, our innovative oral kidney-targeting nanoformulation emerges as a promising solution to the current clinical challenges by pro ...

[5] = oral every 3 days P30-P120, day of harvest

kidney accumulation (% of total organ fluorescence) [1]: ~4.5%
Na ([2]; oral every 3 days P30-P120, blood from submandibular vein, day of harvest): 144.6 ± 1.6 mmol/L
BUN/Urea [2, 5]: 22.8 ± 7.8 md/dL
Cl [2, 5]: 113.0 ± 3.2 mmol/L
Crea [2, 5]: <0.2 md/dL
Glu [2, 5]: 220 ± 24.4 mg/dL
Hb [2, 5]: 12.8 ± 0.9 g/dL
Hct [2, 5]: 37.4 ± 3.0 PCV
K [2, 5]: 5.9 ± 1.4 mmol/L
iCa [2, 5]: 1.1 ± 0.2 mmol/L
tCO2 [2, 5]: 23.1 ± 0.8 mmol/L
Compound: CN(C)C(=N)N=C(N)N [free metformin, metformin]
phosphorylated AMPK to total AMPK (AMPK): 1.3 ± 0.4
change in TER (Caco-2 cells): no changes in TER

Compound: Cy7-DSPE-PEG2000-(KKEEE)3K [free amphiphilic monomers, unassembled kidney-targeting amphiphiles]
critical micelle concentration [3]: ~1 µM

Compound: Cc1ccccc1C(=O)Nc1ccc(C(=O)N2CCCC(O)c3cc(Cl)ccc32)c(C)c1 (stereo not drawn) [tolvaptan]
accumulation in the kidney after oral administration [4]: ~5.7%
